Columns and labels:
Format in all cases: in vivo
[1] = test system: junglerice (Echinochloa colona); assay: Test E flooded paddy water application; details: Flood, 21 days, scale 0 to 100 (0 no effect, 100 complete control)
How it was run: (§1)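 Greenhouse pots of Tama silt loam with weeds and rice at 2.0–2.5-leaf stage, flooded to 3 cm; compounds applied directly into paddy water, depth maintained. Visual rating versus untreated controls after 21 days, 0 (no effect) to 100 (complete control); 29.5/26.7 °C, 16-h photoperiod.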

[2] = test system: rice flatsedge (Cyperus iria); assay: Test E flooded paddy water application; details: Flood, 21 days, scale 0 to 100 (0 no effect, 100 complete control)
How it was run: as §1

[3] = test system: bearded (brdd.) sprangletop (Leptochloa fusca ssp. fascicularis); assay: Test E flooded paddy water application; details: Flood, 21 days, scale 0 to 100 (0 no effect, 100 complete control)
How it was run: as §1

[4] = test system: ducksalad (Heteranthera limosa); assay: Test E flooded paddy water application; details: Flood, 21 days, scale 0 to 100 (0 no effect, 100 complete control)
How it was run: as §1

[5] = test system: barnyardgrass (Echinochloa crus-galli); assay: Test E flooded paddy water application; details: Flood, 21 days, scale 0 to 100 (0 no effect, 100 complete control)
How it was run: as §1

[6] = test system: smallflower umbrella sedge (Cyperus difformis); assay: Test E flooded paddy water application; details: Flood, 21 days, scale 0 to 100 (0 no effect, 100 complete control)
How it was run: as §1

[7] = test system: late watergrass (Echinochloa oryzicola); assay: Test E flooded paddy water application; details: Flood, 21 days, scale 0 to 100 (0 no effect, 100 complete control)
How it was run: as §1

[8] = test system: early watergrass (Echinochloa oryzoides); assay: Test E flooded paddy water application; details: Flood, 21 days, scale 0 to 100 (0 no effect, 100 complete control)
How it was run: as §1

[9] = test system: transplanted rice seedlings (Oryza sativa cv. ‘Japonica-M202’); assay: Test E flooded paddy water application; details: Flood, 21 days, scale 0 to 100 (0 no effect, 100 complete control)
How it was run: as §1

[10] = test system: water seeded rice seedlings (Oryza sativa cv. ‘Japonica-M202’); assay: Test E flooded paddy water application; details: Flood, 21 days, scale 0 to 100 (0 no effect, 100 complete control)
How it was run: as §1

[11] = test system: purple redstem (Ammannia coccinea); assay: Test E flooded paddy water application; details: Flood, 21 days, scale 0 to 100 (0 no effect, 100 complete control)
How it was run: as §1

[12] = test system: redroot pigweed (Amaranthus retroflexus); assay: Test A pre/postemergence
How it was run: (§2)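 Pre/post greenhouse screen; loam/sand soil; solvent + surfactant formulation; pre = directed soil spray at planting, post = 1–2 leaf plants, 2–10 cm; ~10 d; visual 0–100 rating vs untreated.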

[13] = test system: crabgrass (Digitaria sanguinalis); assay: Test A pre/postemergence
How it was run: as §2

[14] = test system: barnyardgrass (Echinochloa crus-galli); assay: Test A pre/postemergence
How it was run: as §2

[15] = test system: velvetleaf (Abutilon theophrasti); assay: Test A pre/postemergence
How it was run: as §2

[16] = test system: giant foxtail (Setaria faberi); assay: Test A pre/postemergence
How it was run: as §2

[17] = test system: morningglory (Ipomoea spp.); assay: Test A pre/postemergence
How it was run: as §2

[18] = Postemergence, 125 g ai/ha, 0 to 100 scale (0 no effect, 100 complete control)
[19] = Postemergence, 500 g ai/ha, 0 to 100 scale (0 no effect, 100 complete control)
[20] = Preemergence, 125 g ai/ha, 0 to 100 scale where 0 is no effect and 100 is complete control, approximately ten days
[21] = Preemergence, 500 g ai/ha, 0 to 100 scale where 0 is no effect and 100 is complete control, approximately ten days

Nc1nc(-c2ccc(Cl)cc2)nc(C(=O)OCc2ccccc2)c1Cl [Compound 118]
55: Plant response rating, Pigweed [12, 21]
65: Junglerice plant response rating ([1]; 125 g ai/ha) | Junglerice plant response rating ([1]; 250 g ai/ha) | Plant response rating, Morningglory [17, 18]
20: Redstem plant response rating ([11]; 32 g ai/ha) | Plant response rating, Crabgrass [13, 19]
50: Redstem plant response rating ([11]; 125 g ai/ha)
10: Plant response rating, Pigweed [12, 20] | Plant response rating, Crabgrass [13, 18] | Plant response rating, Crabgrass [13, 20] | Plant response rating, Barnyardgrass [14, 21]
40: Junglerice plant response rating ([1]; 32 g ai/ha)
100: Flatsedge, Rice plant response rating ([2]; 250 g ai/ha) | Ducksalad plant response rating ([4]; 32 g ai/ha) | Ducksalad plant response rating ([4]; 64 g ai/ha) | Ducksalad plant response rating ([4]; 125 g ai/ha) | Ducksalad plant response rating ([4]; 250 g ai/ha) | Plant response rating, Ducksalad ([4]; 16 g ai/ha) | Sedge, Umbrella plant response rating ([6]; 64 g ai/ha) | Sedge, Umbrella plant response rating ([6]; 125 g ai/ha) | Sedge, Umbrella plant response rating ([6]; 250 g ai/ha)
30: Redstem plant response rating ([11]; 64 g ai/ha)
95: Flatsedge, Rice plant response rating ([2]; 32 g ai/ha) | Flatsedge, Rice plant response rating ([2]; 64 g ai/ha) | Flatsedge, Rice plant response rating ([2]; 125 g ai/ha) | Sedge, Umbrella plant response rating ([6]; 32 g ai/ha) | Plant response rating, Velvetleaf [15, 19]
15: Plant response rating, Velvetleaf [15, 21] | Plant response rating, Foxtail, Giant [16, 19] | Plant response rating, Foxtail, Giant [16, 21]
75: Plant response rating, Pigweed [12, 19]
70: Sprangletop, Brdd. plant response rating ([3]; 125 g ai/ha) | Plant response rating, Morningglory [17, 19]
60: Plant response rating, Pigweed [12, 18]
0: Plant response rating, Junglerice ([1]; 16 g ai/ha) | Sprangletop, Brdd. plant response rating ([3]; 32 g ai/ha) | Sprangletop, Brdd. plant response rating ([3]; 64 g ai/ha) | Plant response rating, Sprangletop, Brdd. ([3]; 16 g ai/ha) | Barnyardgrass plant response rating ([5]; 32 g ai/ha) | Barnyardgrass plant response rating ([5]; 64 g ai/ha) | Barnyardgrass plant response rating ([5]; 125 g ai/ha) | Barnyardgrass plant response rating ([5]; 250 g ai/ha) | Plant response rating, Barnyardgrass ([5]; 16 g ai/ha) | Watergrass, Late plant response rating ([7]; 32 g ai/ha) | Watergrass, Late plant response rating ([7]; 64 g ai/ha) | Watergrass, Late plant response rating ([7]; 125 g ai/ha) | Watergrass, Late plant response rating ([7]; 250 g ai/ha) | Plant response rating, Watergrass, Late ([7]; 16 g ai/ha) | Watergrass, Early plant response rating ([8]; 32 g ai/ha) | Watergrass, Early plant response rating ([8]; 64 g ai/ha) | Watergrass, Early plant response rating ([8]; 125 g ai/ha) | Watergrass, Early plant response rating ([8]; 250 g ai/ha) | Plant response rating, Watergrass, Early ([8]; 16 g ai/ha) | Rice, Transplanted plant response rating ([9]; 32 g ai/ha) | Rice, Transplanted plant response rating ([9]; 64 g ai/ha) | Rice, Transplanted plant response rating ([9]; 125 g ai/ha) | Rice, Transplanted plant response rating ([9]; 250 g ai/ha) | Plant response rating, Rice, Transplanted ([9]; 16 g ai/ha) | Rice, Water Seeded plant response rating ([10]; 32 g ai/ha) | Rice, Water Seeded plant response rating ([10]; 64 g ai/ha) | Rice, Water Seeded plant response rating ([10]; 125 g ai/ha) | Rice, Water Seeded plant response rating ([10]; 250 g ai/ha) | Plant response rating, Rice, Water Seeded ([10]; 16 g ai/ha) | Plant response rating, Redstem ([11]; 16 g ai/ha) | Plant response rating, Barnyardgrass [14, 18] | Plant response rating, Barnyardgrass [14, 19] | Plant response rating, Barnyardgrass [14, 20] | Plant response rating, Velvetleaf [15, 20] | Plant response rating, Foxtail, Giant [16, 18] | Plant response rating, Foxtail, Giant [16, 20] | Plant response rating, Morningglory [17, 20] | Plant response rating, Morningglory [17, 21]
85: Plant response rating, Flatsedge, Rice ([2]; 16 g ai/ha) | Sprangletop, Brdd. plant response rating ([3]; 250 g ai/ha) | Plant response rating, Sedge, Umbrella ([6]; 16 g ai/ha) | Redstem plant response rating ([11]; 250 g ai/ha)
45: Junglerice plant response rating ([1]; 64 g ai/ha)
90: Plant response rating, Velvetleaf [15, 18]
25: Plant response rating, Crabgrass [13, 21]

Source: patent publication US8802597B2, “Herbicidal pyrimidines” (E I du Pont de Nemours and Company, priority 2003, dated 2014)
